By IC50 is commonly meant the concentration that gives 50% inhibition.

Structures are written as SMILES. Where two headings read alike, the source gives them in different places.

For the assay, the target named is T1, EBP-Ig (N-terminal 225 amino acids of the human EPO receptor joined to an Ig heavy chain) (Homo sapiens, UniProt P19235).
T1 construct: Ig heavy chain (fusion partner); made in house; host or cells: NSO cells (secreted into conditioned media)
T1 sequence (P19235 25-250 limits assumed): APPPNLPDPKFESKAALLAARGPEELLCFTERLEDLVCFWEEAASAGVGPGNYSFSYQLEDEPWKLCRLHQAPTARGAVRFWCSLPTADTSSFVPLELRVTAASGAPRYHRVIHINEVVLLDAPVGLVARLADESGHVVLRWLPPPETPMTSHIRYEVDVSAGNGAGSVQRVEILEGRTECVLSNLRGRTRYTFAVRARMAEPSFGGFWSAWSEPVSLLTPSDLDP
The assay is described as follows: Inhibition of [125I]EPO binding to immobilized EBP-Ig (EPO binding protein-Ig), scintillation Flash plate competition assay. Conditions: for % inh @ 50 μM (Inhibition of EPO binding to EBP-Ig): 50 μM test compound, average % inhibition; for % inh @ 50 μM (Inhibition of EPO binding to EBP-Ig) / IC30 μM (Inhibition of EPO binding to EBP-Ig) / IC50: 0.5 nM [125I]EPO; for IC30 μM (Inhibition of EPO binding to EBP-Ig): 0–500 μM test compound; for IC50: read-out: IC50, μM (Inhibition of EPO binding to EBP-Ig), concentration reducing corrected total binding to 50%. From the text:
The interaction of biotin and streptavidin is frequently employed to capture and effectively immobilize reagents useful in assay protocols and has been employed here as a simple method to capture and immobilize EBP-Ig. EBP-Ig is initially randomly modified with an amine reactive derivative of biotin to produce biotinylated-EBP-Ig. Use of streptavidin coated plates allows the capture of the biotinylated EBP-Ig on the surface of a scintillant impregnated coated well (Flash plates, NEN-DuPont). […] The amount of light produced was quantified to estimate the amount of ligand binding. The specific assay format was suitable for the multi-well plate capacity of a Packard TopCount Microplate Scintillation counter.
Biotinylated EBP-Ig was prepared as follows. EBP-Ig (3 mL, OD280 2.9) was exchanged into 50 mM sodium bicarbonate, pH 8.5 using a Centriprep 10 ultrafiltration device. The final volume of the exchanged protein was 1.2 mL (OD280 2.6, representing about 2 mg total protein). 10 μL of a 4 mg/ml solution of NHS-LC-Biotin (Pierce) was added and the reaction mixture placed on ice in the dark for two hours. Unreacted biotin was removed by exchange of the reaction buffer into PBS in a Centriprep 10 device and the protein reagent aliquoted and stored at −70° C.
All wells were adjusted to a final DMSO concentration of 5%. […] After all additions were made, the plate was covered with an adhesive top seal and placed in the dark at room temperature overnight. The next day all liquid was aspirated from the wells to limit analyte dependent quench of the signal, and the plates were counted on a Packard TOPCOUNT Microplate Scintillation Counter. […] Corrected total binding (CTB) was calculated as: TB−NSB=CTB. […] Table 1 lists the average % inhibition, and if determined the IC50 and IC30 values for compounds of Formula I, where the compound numbers refer to the compounds in the tables accompanying the preparative examples.

[1] abbreviates: 50 μM compound, Table 10, 50 µM.

`COC(=O)C(CCCCNC(=O)OCc1ccccc1)N(C/C=C/c1cccc(Oc2ccccc2)c1)C/C=C/c1cccc(Oc2ccccc2)c1` (centres unmarked) [compound 176]: where the note is “50 μM compound, Table 9”, the “EPO/EBP-Ig % inh @ 50 μM” value was −4%.
As to `COC(=O)C(CCCCNC(=O)OC(C)(C)C)N(C/C=C/c1ccc([N+](=O)[O-])cc1)C/C=C/c1ccc([N+](=O)[O-])cc1` (centres unmarked) [compound 178], the “% inh @ 50 μM (Inhibition of EPO binding to EBP-Ig)” value worked out at 36%. Further, the “EPO/EBP-Ig % inh @ 50 μM” value (50 μM compound, Table 9) is 36%.
In the case of `CC(C)(C)OC(=O)NCCCCC(C(=O)O)N(C/C=C/c1ccc([N+](=O)[O-])cc1)C/C=C/c1ccc([N+](=O)[O-])cc1` (centres unmarked) [compound 179], the “% inh @ 50 μM (Inhibition of EPO binding to EBP-Ig)” value is recorded as 30%. Further, the “EPO/EBP-Ig % inh @ 50 μM” value (50 μM compound, Table 9) came out at 30%.
In the case of `COC(=O)C(CCCCNC(=O)OC(C)(C)C)N(C/C=C/c1cccc(Oc2ccccc2)c1)C/C=C/c1cccc(Oc2ccccc2)c1` (centres unmarked) [compound 180], for the setting “50 μM compound, Table 9”, the “EPO/EBP-Ig % inh @ 50 μM” value was −4%.
In the case of `COC(=O)C(CCCCNC(=O)OC(C)(C)C)N(C/C=C/c1cccc(Oc2ccc(C(C)(C)C)cc2)c1)C/C=C/c1cccc(Oc2ccc(C(C)(C)C)cc2)c1` (centres unmarked) [compound 181], where the note is “50 μM compound, Table 9”, the “EPO/EBP-Ig % inh @ 50 μM” value was −9%.
Same read-out and setting: the same measure for `COC(=O)C(CCCCN)N(C/C=C/c1cccc(Oc2ccc(C(C)(C)C)cc2)c1)C/C=C/c1cccc(Oc2ccc(C(C)(C)C)cc2)c1` (centres unmarked) [compound 182]: 18%.
With `COC(=O)C(CCCCNC(=O)OC(C)(C)C)N(C/C=C/c1cccc([N+](=O)[O-])c1)C/C=C/c1cccc([N+](=O)[O-])c1` (centres unmarked) [compound 183], the “% inh @ 50 μM (Inhibition of EPO binding to EBP-Ig)” value is 36%. The “EPO/EBP-Ig % inh @ 50 μM” value (50 μM compound, Table 9) was 36%.
Take `COC(=O)C(CCCCN)N(C/C=C/c1cccc([N+](=O)[O-])c1)C/C=C/c1cccc([N+](=O)[O-])c1` (centres unmarked) [compound 184]: the “IC30 μM (Inhibition of EPO binding to EBP-Ig)” value was determined as 10 µM and the “% inh @ 50 μM (Inhibition of EPO binding to EBP-Ig)” value is 53%. The “EPO/EBP-Ig % inh @ 50 μM” value (50 μM compound, Table 9) came out at 53%.
For `COC(=O)C(CCCCN)N(C/C=C/c1cccc(N)c1)C/C=C/c1cccc(N)c1` (centres unmarked) [compound 185], the “EPO/EBP-Ig % inh @ 50 μM” value (50 μM compound, Table 9) is reported as 29%.
On to `CCCCNC(=O)C(CCCCN)N(C/C=C/c1ccccc1)C/C=C/c1ccccc1` (centres unmarked) [compound 205], for which the “EPO/EBP-Ig % inh @ 50 μM” value (50 μM compound, Table 10) was found to be 26%.
Consider `CCCCNC(=O)C(CCCCNC(=O)c1ccccc1OC)N(C/C=C/c1ccccc1)C/C=C/c1ccccc1` (centres unmarked) [compound 206], for which the “EPO/EBP-Ig % inh @ 50 μM” value under setting [1] stood at 17%.
With `CCCCNC(=O)C(CCCCNC(=O)c1ccc(OC)cc1)N(C/C=C/c1ccccc1)C/C=C/c1ccccc1` (centres unmarked) [compound 207], the “EPO/EBP-Ig % inh @ 50 μM” value (50 μM compound, Table 10) is recorded as 20%.
Turning to `CCCCNC(=O)C(CCCCNC(=O)c1ccccc1)N(C/C=C/c1ccccc1)C/C=C/c1ccccc1` (centres unmarked) [compound 208], the “EPO/EBP-Ig % inh @ 50 μM” value (50 μM compound, Table 10) was 22%.
For `CCCCNC(=O)C(CCCCNC(=O)c1ccccc1OC)N(C/C=C/c1ccccc1)C/C=C/c1ccccc1` (centres unmarked) [compound 209], the “EPO/EBP-Ig % inh @ 50 μM” value under setting [1] was 25%.
`COc1ccc(CCNC(=O)C(CCCCN)N(CC=Cc2ccccc2)CC=Cc2ccccc2)cc1` (centres unmarked) [compound 211]: the “IC30 μM (Inhibition of EPO binding to EBP-Ig)” value is 20 µM and the IC50 worked out at 65 µM. For the same compound, the inhibition at 50 µM (read-out: % inh @ 50 μM (Inhibition of EPO binding to EBP-Ig)) came to 62%. Besides, the inhibition at 50 µM (read-out: EPO/EBP-Ig % inh @ 50 μM, 50 μM compound, Table 10) turned out to be 62%.
Turning to `CCCNC(=O)C(CCCCN)N(C/C=C/c1ccccc1)C/C=C/c1ccccc1` (centres unmarked) [compound 212], the “EPO/EBP-Ig % inh @ 50 μM” value (50 μM compound, Table 10) is given as −10%.
For `CC(C)(C)OC(=O)NCCCCC(C(=O)NCc1ccc(OCC=Cc2ccccc2)cc1)N(CC=Cc1ccccc1)CC=Cc1ccccc1` (centres unmarked) [compound 216], under “50 μM compound, Table 10”, the “EPO/EBP-Ig % inh @ 50 μM” value was found to be 10%.
`NCCCCC(C(=O)NCc1ccc(OCC=Cc2ccccc2)cc1)N(CC=Cc1ccccc1)CC=Cc1ccccc1` (centres unmarked) [compound 220]: the “IC30 μM (Inhibition of EPO binding to EBP-Ig)” value is 30 µM, the “% inh @ 50 μM (Inhibition of EPO binding to EBP-Ig)” value was 45% and the IC50 turned out to be 50 µM. The “EPO/EBP-Ig % inh @ 50 μM” value (50 μM compound, Table 10) was 45%.
